Test system: 967376-340-R-J2-PDC multicell spheroid viability
Assay: Anticancer human tumor 967376-340-R-J2-PDC patient-derived colon adenocarcinoma cell line growth inhibition [PI3K]
Settings: for IC50: curve of first compound; for viability, T/C: stronger effect = lower value
How it was run: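 Tumor cells grown as multi-cell spheroids with HUVEC endothelial cells and MSC fibroblast-like stroma were treated with targeted agents combined with inavolisib, alpelisib, duvelisib or copanlisib. Doses fell in half-log steps from near clinical Cmax, else from 10 microM. Viability was measured.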
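Further: spheroids exposed to agents for 7 days before read-out.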
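Wherever viability, T/C is given: luminescence used as surrogate of cell viability.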

Molecule CC1(C)CCC(CN2CCN(c3ccc(C(=O)NS(=O)(=O)c4ccc(NCC5CCOCC5)c([N+](=O)[O-])c4)c(Oc4cnc5[nH]ccc5c4)c3)CC2)=C(c2ccc(Cl)cc2)C1 + CC(Nc1ccc2c(c1)OCCn1cc(N3C(=O)OCC3C(F)F)nc1-2)C(N)=O has an IC50 (second compound 0.00316 µM) greater than 10 µM, an IC50 (second compound 0.01 µM) greater than 10 µM and an IC50 (second compound 0.0316 µM) greater than 10 µM. The IC50 (second compound 0.1 µM) was greater than 10 µM, the IC50 (second compound 0.316 µM) was 7.82 µM and the IC50 (second compound 1 µM) was 4.85 µM. The viability, T/C (second compound 0.00316 µM, first compound 0.0316 µM) was 106%, the viability, T/C (second compound 0.00316 µM, first compound 0.1 µM) was 67.9% and the viability, T/C (second compound 0.00316 µM, first compound 0.316 µM) was 97.2%. The viability, T/C (second compound 0.00316 µM, first compound 1 µM) was 98%, the viability, T/C (second compound 0.00316 µM, first compound 3.16 µM) was 102% and the viability, T/C (second compound 0.00316 µM, first compound 10 µM) was 61.1%. It also gave a viability, T/C (second compound 0.01 µM, first compound 0.0316 µM) of 107%, a viability, T/C (second compound 0.01 µM, first compound 0.1 µM) of 75.7% and a viability, T/C (second compound 0.01 µM, first compound 0.316 µM) of 79.9%. For the same molecule, the viability, T/C (second compound 0.01 µM, first compound 1 µM) was 78.6%, the viability, T/C (second compound 0.01 µM, first compound 3.16 µM) was 81.2% and the viability, T/C (second compound 0.01 µM, first compound 10 µM) was 57.3%. For the same molecule, the viability, T/C (second compound 0.0316 µM, first compound 0.0316 µM) was 67.3%, the viability, T/C (second compound 0.0316 µM, first compound 0.1 µM) was 86.5% and the viability, T/C (second compound 0.0316 µM, first compound 0.316 µM) was 82.2%. It also gave a viability, T/C (second compound 0.0316 µM, first compound 1 µM) of 88.9%, a viability, T/C (second compound 0.0316 µM, first compound 3.16 µM) of 75.9% and a viability, T/C (second compound 0.0316 µM, first compound 10 µM) of 81.5%. For the same molecule, the viability, T/C (second compound 0.1 µM, first compound 0.0316 µM) was 70.6%, the viability, T/C (second compound 0.1 µM, first compound 0.1 µM) was 80.5% and the viability, T/C (second compound 0.1 µM, first compound 0.316 µM) was 79.1%. For the same molecule, the viability, T/C (second compound 0.1 µM, first compound 1 µM) was 84.7%, the viability, T/C (second compound 0.1 µM, first compound 3.16 µM) was 95.7% and the viability, T/C (second compound 0.1 µM, first compound 10 µM) was 58.8%. The viability, T/C (second compound 0.316 µM, first compound 0.0316 µM) was 68.3%, the viability, T/C (second compound 0.316 µM, first compound 0.1 µM) was 81.5% and the viability, T/C (second compound 0.316 µM, first compound 0.316 µM) was 58.2%. It also gave a viability, T/C (second compound 0.316 µM, first compound 1 µM) of 76.2%, a viability, T/C (second compound 0.316 µM, first compound 3.16 µM) of 71.2% and a viability, T/C (second compound 0.316 µM, first compound 10 µM) of 44.5%. It also gave a viability, T/C (second compound 1 µM, first compound 0.0316 µM) of 56.7%, a viability, T/C (second compound 1 µM, first compound 0.1 µM) of 48.1% and a viability, T/C (second compound 1 µM, first compound 0.316 µM) of 57.2%. The viability, T/C (second compound 1 µM, first compound 1 µM) was 49.9%, the viability, T/C (second compound 1 µM, first compound 3.16 µM) was 67.8% and the viability, T/C (second compound 1 µM, first compound 10 µM) was 36.2%.

Source: PubChem BioAssay AID1963962 (Molecular Pharmacology Branch, DTP, NCI, 2024)
